In patent US11427553B2, “Dihydrooxadiazinones” (Bayer Aktiengesellschaft, priority 2017, dated 2022):

Columns and labels:
[1] = system: H4 cells; assay: Assay 1 cell proliferation measurement, H4; format: cell-based; settings: Homo sapiens; Astrocytoma; read-out: Anti-proliferation IC50 [nM] H4
[2] = system: SK-MEL-3 cells; assay: Assay 1 cell proliferation measurement (CTG, 72 h), SK-MEL-3; format: cell-based, human; settings: Homo sapiens, SK-MEL3; Assay 1, 72 h, Cell Titer Glo; read-out: SK-MEL-3 IC50 [nM] (melanoma)
Method in brief: (§1)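 CellTiter-Glo luminescence was read at treatment start (0 h plate) and after 72 h compound exposure at 37 °C. Doses were 2.5-fold steps, ten concentrations, top 100 nM final, 0.3% DMSO. Growth inhibition was scaled between 0 h and vehicle values, and IC50 was obtained by 4-parameter fitting.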

[3] = target: human full length PDE3A (Homo sapiens (Human), UniProt Q14432); assay: Assay 4 PDE3A enzyme inhibition (3H-cAMP SPA); format: biochemical; settings: Sf9 cell extract
Method in brief: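 In this SPA format, the 60-min room-temperature reaction used 0.025 μCi [8-3H]cAMP and diluted full-length PDE3A from Sf9 cells. Percentage activity was plotted against log compound concentration to derive IC50.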

[4] = system: HEL 92.1.7 cells; assay: Assay 1 cell proliferation measurement, HEL 92.1.7; format: cell-based; settings: Homo sapiens, Erythroleukemia, read-out: Anti-proliferation IC50 [nM] HEL 92.1.7
[5] = target: human full length PDE3B (Homo sapiens (Human), UniProt Q13370); assay: Assay 5 PDE3B enzyme inhibition (3H-cAMP SPA); format: biochemical; settings: Sf9 cell extract
Method in brief: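 Compounds in DMSO are mixed with diluted PDE3B extract from Sf9 cells, and reactions start on adding tritiated cAMP. After 60 min at room temperature, yttrium scintillation proximity beads terminate hydrolysis and signal is counted; IC50 values come from sigmoidal dose-response curves.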

[6] = system: HMCB cells; assay: Assay 1 cell proliferation measurement, HMCB; format: cell-based; settings: Homo sapiens, Melanoma, read-out: Anti-proliferation IC50 [nM] HMCB
[7] = system: HeLa cells; assay: Assay 1 cell proliferation measurement (CTG, 72 h), HeLa; format: cell-based, human; settings: Homo sapiens, HeLa; Assay 1, 72 h, Cell Titer Glo; read-out: HeLa IC50 [nM] (Cervical cancer)
Method in brief: as §1

[8] = system: IGR-1 cells; assay: Assay 1 cell proliferation measurement, IGR-1; format: cell-based; settings: Homo sapiens, Melanoma, read-out: Anti-proliferation IC50 [nM] IGR-1
[9] = system: NCI-H1734 cells; assay: Assay 1 cell proliferation measurement, NCI-H1734; format: cell-based; settings: Homo sapiens, Lung, read-out: Anti-proliferation IC50 [nM] NCI-H1734
[10] = Assay 6 in vitro metabolic stability in cryopreserved human hepatocytes (CL, Fmax); format: in vitro ADME; settings: 1 μM test compound; for Clblood: hepatic in vivo blood clearance calculated (well-stirred) from half-life in cryopreserved human hepatocytes; for Fmax: maximal oral bioavailability calculated from half-life in cryopreserved human hepatocytes
Description: Assay 6 Method for Human Cryo Hepatocytes:
Investigation of In Vitro Metabolic Stability in Cryopreserved Human Hepatocytes (Including Calculation of Hepatic In Vivo Blood Clearance (CL) and Maximal Oral Bioavailability (Fmax))
Cryopreserved Hepatocytes (e.g. purchased from Celsis InVitroTechnologies) were briefly thawed, washed with 45 mL pre-warmed in in vitro GRO HT medium and centrifuged for 5 min at 50×g. The cell pellet was resuspended in 5 ml of Krebs-Henseleit […] (KHB). Cell viability was determined by trypan blue exclusion.
For the metabolic stability assay liver cells were distributed in WME containing 5% FCS to glass vials at a density of 1.0×10^6 vital cells/ml. The test compound was added to a final concentration of 1 μM. During incubation, the hepatocyte suspensions were continuously shaken at 580 rpm and aliquots were taken at 2, 8, 16, 30, 45 and 90 min, to which equal volumes of cold methanol were immediately added. Samples were frozen at −20° C. over night, after subsequently centrifuged for 15 minutes at 3000 rpm and the supernatant was analyzed with an Agilent 1290 HPLC-system with LCMS/MS detection.
The half-life of a test compound was determined from the concentration-time plot. From the half-life the intrinsic clearances were calculated. Together with the additional parameters liver blood flow, amount of liver cells in vivo and in vitro. The hepatic in vivo blood clearance (CL) and the maximal oral bioavailability (Fmax) was calculated.

[11] = system: IGR37 cells; assay: Assay 1 cell proliferation measurement (CTG, 72 h), IGR37; format: cell-based; settings: Homo sapiens, IGR-37, Cell Titer Glo, read-out: IGR37 IC50 [nM] (melanoma)
[12] = system: CHL-1 cells; assay: Assay 1 cell proliferation measurement, CHL-1; format: cell-based; settings: Homo sapiens, Melanoma, read-out: Anti-proliferation IC50 [nM] CHL-1
[13] = system: Hs 578T cells; assay: Assay 1 cell proliferation measurement, Hs 578T; format: cell-based; settings: Homo sapiens, Breast, read-out: Anti-proliferation IC50 [nM] Hs 578T
[14] = system: DBTRG-05-MG cells; assay: Assay 1 cell proliferation measurement, DBTRG-05-MG; format: cell-based; settings: Homo sapiens, Glioblastoma, read-out: Anti-proliferation IC50 [nM] DBTRG-05-MG
[15] = system: DK-MG cells; assay: Assay 1 cell proliferation measurement, DK-MG; format: cell-based; settings: Homo sapiens; Glioblastoma; read-out: Anti-proliferation IC50 [nM] DK-MG
[16] = system: A-2058 cells; assay: Assay 1 cell proliferation measurement, A-2058; format: cell-based; settings: Homo sapiens, A2058; Melanoma; read-out: Anti-proliferation IC50 [nM] A-2058
[17] = system: PA-1 cells; assay: Assay 1 cell proliferation measurement, PA-1; format: cell-based; settings: Homo sapiens, Ovarian teratocarcinoma, read-out: Anti-proliferation IC50 [nM] PA-1

Chain of human full length PDE3B (Q13370 whole entry): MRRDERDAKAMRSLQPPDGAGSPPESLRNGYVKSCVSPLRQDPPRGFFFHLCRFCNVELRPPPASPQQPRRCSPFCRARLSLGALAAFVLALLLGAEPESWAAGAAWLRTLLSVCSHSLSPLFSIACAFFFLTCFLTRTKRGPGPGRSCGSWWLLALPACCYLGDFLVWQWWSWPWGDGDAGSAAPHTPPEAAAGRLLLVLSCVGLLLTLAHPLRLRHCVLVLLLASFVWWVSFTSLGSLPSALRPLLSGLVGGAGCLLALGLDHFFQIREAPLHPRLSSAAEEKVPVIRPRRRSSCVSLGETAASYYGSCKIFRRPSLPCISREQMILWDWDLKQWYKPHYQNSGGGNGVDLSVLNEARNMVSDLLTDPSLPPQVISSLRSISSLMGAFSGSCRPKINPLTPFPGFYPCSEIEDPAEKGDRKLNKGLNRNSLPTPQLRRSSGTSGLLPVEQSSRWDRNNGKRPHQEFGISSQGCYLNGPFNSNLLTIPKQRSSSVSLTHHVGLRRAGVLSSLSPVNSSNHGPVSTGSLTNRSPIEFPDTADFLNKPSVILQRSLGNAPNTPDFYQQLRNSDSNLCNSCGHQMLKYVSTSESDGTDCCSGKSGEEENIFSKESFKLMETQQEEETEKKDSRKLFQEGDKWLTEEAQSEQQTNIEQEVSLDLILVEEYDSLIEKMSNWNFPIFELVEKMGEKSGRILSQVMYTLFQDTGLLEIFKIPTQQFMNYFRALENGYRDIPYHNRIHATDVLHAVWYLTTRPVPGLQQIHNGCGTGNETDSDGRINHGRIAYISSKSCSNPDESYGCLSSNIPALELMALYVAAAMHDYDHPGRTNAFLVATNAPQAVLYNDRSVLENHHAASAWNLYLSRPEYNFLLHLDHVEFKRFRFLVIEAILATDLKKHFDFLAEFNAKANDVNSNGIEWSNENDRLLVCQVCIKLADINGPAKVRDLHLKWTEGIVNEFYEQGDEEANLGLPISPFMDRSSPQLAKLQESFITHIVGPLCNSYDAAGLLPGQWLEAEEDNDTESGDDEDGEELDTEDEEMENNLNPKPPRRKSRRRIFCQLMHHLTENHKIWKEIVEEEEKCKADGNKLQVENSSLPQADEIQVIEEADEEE
Chain of human full length PDE3A (Q14432 whole entry): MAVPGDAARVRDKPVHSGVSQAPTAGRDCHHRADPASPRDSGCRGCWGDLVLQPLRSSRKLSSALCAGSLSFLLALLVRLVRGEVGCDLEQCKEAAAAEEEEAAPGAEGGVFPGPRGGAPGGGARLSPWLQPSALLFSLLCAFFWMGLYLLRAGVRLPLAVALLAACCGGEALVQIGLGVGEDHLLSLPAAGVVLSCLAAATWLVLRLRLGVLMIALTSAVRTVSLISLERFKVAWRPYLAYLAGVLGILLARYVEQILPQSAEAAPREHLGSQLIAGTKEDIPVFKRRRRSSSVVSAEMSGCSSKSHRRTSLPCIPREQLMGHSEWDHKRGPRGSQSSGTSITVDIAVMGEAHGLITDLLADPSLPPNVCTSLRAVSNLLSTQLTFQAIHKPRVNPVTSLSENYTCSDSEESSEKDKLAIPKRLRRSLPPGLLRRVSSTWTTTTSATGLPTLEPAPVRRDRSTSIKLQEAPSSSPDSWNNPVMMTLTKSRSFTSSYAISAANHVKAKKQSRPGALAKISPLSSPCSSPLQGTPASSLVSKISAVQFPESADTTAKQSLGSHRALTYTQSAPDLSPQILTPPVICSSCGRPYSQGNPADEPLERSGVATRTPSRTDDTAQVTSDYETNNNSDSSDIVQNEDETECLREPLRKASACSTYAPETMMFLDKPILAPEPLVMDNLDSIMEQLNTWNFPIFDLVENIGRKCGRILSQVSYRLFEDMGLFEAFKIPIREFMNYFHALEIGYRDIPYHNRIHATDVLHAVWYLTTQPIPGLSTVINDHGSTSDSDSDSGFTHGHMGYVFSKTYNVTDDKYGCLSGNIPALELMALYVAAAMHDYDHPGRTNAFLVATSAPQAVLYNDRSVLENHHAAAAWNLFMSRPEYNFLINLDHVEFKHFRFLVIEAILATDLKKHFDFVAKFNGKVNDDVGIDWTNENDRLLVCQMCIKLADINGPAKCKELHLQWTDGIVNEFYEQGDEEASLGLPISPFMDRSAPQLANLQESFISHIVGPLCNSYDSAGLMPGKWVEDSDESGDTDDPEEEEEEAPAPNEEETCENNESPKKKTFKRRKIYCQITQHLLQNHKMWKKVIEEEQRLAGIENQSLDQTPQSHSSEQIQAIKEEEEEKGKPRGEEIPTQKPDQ

Compound | IC50 [1] | IC50 [2] | IC50 [3] | IC50 [4] | IC50 [5] | IC50 [6] | IC50 [7] | IC50 [8] | IC50 [9] | Clblood [10] | Fmax [10] | IC50 [11] | IC50 [12] | IC50 [13] | IC50 [14] | IC50 [15] | IC50 [16] | IC50 [17]
O=C1NN=C(c2ccc(N3CCC(F)(F)CC3)c(F)c2)CO1 [Example 1, 5-[4-(4,4-Difluoropiperidin-1-yl)-3-fluorophenyl]-3,6-dihydro-2H-1,3,4-oxadiazin-2-one] | 30 nM | 3 nM | 275 nM | 20 nM | 173 nM | 19 nM | 2 nM | 89 nM | 19 nM | 0.24 L/h/kg | 82% |  |  |  |  |  |  | 
O=C1NN=C(c2ccc(N3CCOCC3)c(F)c2)CO1 [Example 4, 5-[3-Fluoro-4-(morpholin-4-yl)phenyl]-3,6-dihydro-2H-1,3,4-oxadiazin-2-one] | 47 nM | 16 nM | 203 nM |  | 154 nM |  | 7 nM |  | 40 nM | <0.01 L/h/kg | 100% |  |  |  |  |  |  | 
Cc1cc(C2=NNC(=O)OC2)ccc1-c1ccc(F)cc1 [Example 7, 5-(4′-Fluoro-2-methylbiphenyl-4-yl)-3,6-dihydro-2H-1,3,4-oxadiazin-2-one] | 44 nM | 13 nM | 220 nM |  | 170 nM |  | 5 nM |  | 26 nM | 0.33 L/h/kg | 75% |  |  |  |  |  |  | 
Cc1cc(C2=NNC(=O)OC2)ccc1-c1ccc(F)c(F)c1 [Example 8, 5-(3′,4′-Difluoro-2-methylbiphenyl-4-yl)-3,6-dihydro-2H-1,3,4-oxadiazin-2-one] | 50 nM | 18 nM | 210 nM |  | 243 nM |  | 6 nM |  | 42 nM |  |  | 16 nM |  |  |  |  |  | 
O=C1NN=C(c2ccc(-c3ccc(F)cc3)c(OC(F)(F)F)c2)CO1 [Example 76, 5-[4′-Fluoro-2-(trifluoromethoxy)biphenyl-4-yl]-3,6-dihydro-2H-1,3,4-oxadiazin-2-one] |  | 13 nM | 225 nM |  | 250 nM |  | 6 nM |  |  | 0.27 L/h/kg | 80% | 13 nM |  |  |  |  |  | 
O=C1NN=C(c2ccc(-c3ccc(C(F)F)cc3)c(F)c2)CO1 [Example 92, 5-[4′-(Difluoromethyl)-2-fluoro[1,1′-biphenyl]-4-yl]-3,6-dihydro-2H-1,3,4-oxadiazin-2-one] |  | 4 nM | 68 nM | 9 nM | 130 nM |  | 2 nM |  |  |  |  | 4 nM | 11 nM | 31 nM | 18 nM | 17 nM | 18 nM | 17 nM
C[C@@H]1OC(=O)NN=C1c1cc(Cl)c(N2CCOCC2)c(C(F)(F)F)c1 [Example 121, (6S)-5-(-[(3-Chloro-4-(morpholin-4-yl)-5-(trifluoromethyl)phenyl)-)]-6-methyl-3,6-dihydro-2H-1,3,4-oxadiazin-2-one] |  | 10 nM | 150 nM |  | 299 nM |  | 5 nM |  |  | 0.13 L/h/kg | 90% | 12 nM |  |  |  |  |  | 
Cc1ccc(C2=NNC(=O)OC2)cc1C(F)(F)F [Example 139, 5-[4-Methyl-3-(trifluoromethyl)phenyl]-3,6-dihydro-2H-1,3,4-oxadiazin-2-one] |  | 29 nM | 140 nM | > 100 nM | 310 nM |  | 14 nM |  |  |  |  | 40 nM | 58 nM | > 100 nM | > 100 nM | 61 nM | > 100 nM | > 100 nM
O=C1NN=C(c2ccc(-c3ccccc3C(F)F)c(F)c2)CO1 [Example 161, 5-[2′-(Difluoromethyl)-2-fluoro[1,1′-biphenyl]-4-yl]-3,6-dihydro-2H-1,3,4-oxadiazin-2-one] |  | 10 nM | 66 nM |  | 49 nM |  | 6 nM |  |  | 0.55 L/h/kg | 59% | 12 nM |  |  |  |  |  | 
C[C@@H]1OC(=O)NN=C1c1ccc(-c2ccnc(N)c2)c(C(F)(F)F)c1 [Example 165, (6S)-5-[4-(2-Aminopyridin-4-yl)-3-(trifluoromethyl)phenyl]-6-methyl-3,6-dihydro-2H-1,3,4-oxadiazin-2-one] |  | 1 nM | 77 nM |  | 66 nM |  | 1 nM |  |  | 0.88 L/h/kg | 33% | 1 nM |  |  |  |  |  | 
C[C@@H]1OC(=O)NN=C1c1ccc(-c2cnn(C(F)F)c2)c(C(F)(F)F)c1 [Example 190, (6S)-5-{4-[1-(Difluoromethyl)-1H-pyrazol-4-yl]-3-(trifluoromethyl)phenyl}-6-methyl-3,6-dihydro-2H-1,3,4-oxadiazin-2-one] |  | 0.4 nM | 38 nM |  | 25 nM |  | 0.2 nM |  |  | 0.90 L/h/kg | 32% | 0.4 nM |  |  |  |  |  | 
COCCCc1ccc(C2=NNC(=O)OC2)cc1C(F)(F)F [Example 267, 5-[4-(3-Methoxypropyl)-3-(trifluoromethyl)phenyl]-3,6-dihydro-2H-1,3,4-oxadiazin-2-one] |  | 5 nM | 145 nM | 26 nM | 185 nM |  | 2 nM |  |  | 0.27 L/h/kg | 80% | 7 nM | 16 nM | 34 nM | 35 nM | 18 nM | 40 nM | 44 nM
CC(C)(C)CCc1ccc(C2=NNC(=O)OC2)cc1C(F)(F)F [Example 269, 5-[4-(3,3-Dimethylbutyl)-3-(trifluoromethyl)phenyl]-3,6-dihydro-2H-1,3,4-oxadiazin-2-one] |  | 17 nM | 695 nM | 44 nM | 790 nM |  | 6 nM |  |  | 0.41 L/h/kg | 69% | 24 nM | 47 nM | 66 nM | 50 nM | 49 nM | 61 nM | 49 nM
C[C@@H]1OC(=O)NN=C1c1ccc(N2CCN(C)CC2)c(C(F)(F)F)c1 [Example 277, (6S)-6-Methyl-5-[4-(4-methylpiperazin-1-yl)-3-(trifluoromethyl)phenyl]-3,6-dihydro-2H-1,3,4-oxadiazin-2-one] |  | 1 nM | 100 nM | > 100 nM | 87 nM |  | 0.3 nM |  |  |  |  | 1 nM | > 100 nM | > 100 nM | > 100 nM | > 100 nM | > 100 nM | > 100 nM
